Like-named read-outs stand apart in the source and are kept apart here.
Columns and labels:
[1] = system: endogenous TFE3; assay: TFE3 nuclear translocation, immunocytochemistry high-content imaging; assay type: cell-based; settings: PKIS2 primary screening
[2] = system: SH-SY5Y cells; note: reference of the scale not given here
[3] = system: SH-SY5Y cells; assay: AK (adenylate kinase) release ToxiLight cytotoxicity assay; settings: PKIS2 primary screening; note: reference of the scale not given here
[4] = system: endogenous TFEB; assay: TFEB nuclear translocation, immunocytochemistry high-content imaging; assay type: cell-based; settings: PKIS2 primary screening
[5] = system: SH-SY5Y cells; assay: Nuclear count from microscopy images (cellular growth and toxicity); settings: PKIS2 primary screening; note: reference of the scale not given here
[6] = PKIS2 primary screening, DQ Red BSA intensity
[7] = PKIS2 primary screening, DQ Red BSA spot count

| Compound | TFE3 % [1] | DQ Intensity [2, 6] | DQ Spot [2, 7] | AK [3] | TFEB % [4] | Nuclear Count [5] | DQ Intensity ([2]; PKIS2 primary screening) | DQ Spot ([2]; PKIS2 primary screening) | DQ Intensity [2] | DQ Spot [2] |
| --- | --- | --- | --- | --- | --- | --- | --- | --- | --- | --- |
| COC(=O)Nc1nc2ccc(Oc3ccc(NC(=O)Nc4cc(F)ccc4F)cc3)cc2[nH]1 [GW701424] | 22.54% | 130.75 | 124.31 | 149.19 | 4.66% | 68.78 | – | – | – | – |
| Nc1ncc(-c2cn[nH]c2)c2scc(-c3ccc4c(c3)CCN4C(=O)Cc3ccccc3)c12 [UNC10225500A] | 18.45% | 108.00 | 96.83 | 74.47 | 8.67% | 110.94 | – | – | – | – |
| NC(=O)Nc1sc(-c2ccc(F)cc2)cc1C(N)=O [UNC10225118A] | 11.46% | – | – | 76.60 | 7.01% | 81.29 | 77.43 | 92.26 | – | – |
| Cc1ccccc1CC(=O)N1CCc2cc(-c3cn(C)c4ncnc(N)c34)ccc21 [UNC10225254A] | 19.37% | – | – | 77.66 | 10.80% | 109.34 | 93.20 | 89.69 | – | – |
| COc1ccc(CNC(=O)NC2CCN(c3ccnc(Nc4ccc(OC)cc4)n3)C2)cc1 (stereo not drawn) [GSK1379727] | 11.01% | 79.60 | 81.20 | 96.08 | 4.74% | 118.16 | – | – | – | – |
| Cc1cccc(Nc2nc(N[C@H]3CCCC[C@H]3N)ncc2C(N)=O)c1.Cl [UNC10225280A] | 21.69% | – | – | 87.17 | 7.12% | 90.29 | 129.29 | 106.20 | – | – |
| Cc1ccc(NC(=O)c2ccc(Cl)cc2)cc1-c1ccc(C(=O)Nc2ccncc2)cc1 [UNC10224985A] | 13.44% | – | – | 72.98 | 7.14% | 119.79 | 77.83 | 81.57 | – | – |
| Nc1cccc(-c2ccc3c(N)n[nH]c3c2)n1 [GSK2192730] | 14.87% | 80.06 | 98.33 | 126.21 | 5.46% | 95.98 | – | – | – | – |
| COc1ccc(-n2cnc3c(N)ncnc32)cc1 [UNC10225413A] | 13.51% | – | – | 68.21 | 5.09% | 102.02 | 106.51 | 108.81 | – | – |
| NS(=O)(=O)c1cccc(-c2ccc3nccc(-c4cccc(S(N)(=O)=O)c4)c3c2)c1 [UNC10225379A] | 17.04% | 88.37 | 88.03 | 131.37 | 4.73% | 79.09 | – | – | – | – |
| CS(=O)(=O)Nc1ccc(-c2ccnc3[nH]ccc23)cc1 [UNC10225427A] | 8.99% | 61.89 | 80.51 | 106.42 | 2.64% | 134.12 | – | – | – | – |
| CNc1nc(-c2ccc3c(N)n[nH]c3c2)cc(N2C[C@@H](C(=O)Nc3ccccc3)CC[C@H]2C)n1 [GSK2298859] | 12.86% | 117.75 | 109.70 | 105.92 | 6.90% | 105.37 | – | – | – | – |
| CN1CCC(n2cnc(-c3ccc(F)cc3)c2-c2ccnc(NC3CCNCC3)n2)CC1 [UNC10225443A] | 14.45% | – | – | 75.10 | 5.73% | 105.97 | 104.65 | 93.05 | – | – |
| O=C(NCCNc1ccnc(Nc2ccc(F)cc2)n1)Nc1ccc2c(c1)OCO2 [GSK1379882] | 17.40% | 52.40 | 79.77 | 105.11 | 4.46% | 67.71 | – | – | – | – |
| Cn1cncc1-c1ccc2ncnc(Nc3ccc(OCc4ccccc4)cc3)c2c1 [UNC10225497A] | 13.09% | 100.86 | 83.02 | 50.65 | 8.56% | 104.34 | – | – | – | – |
| COc1cc2c(Nc3ccc(NC(=O)c4ccccc4)cc3)ncnc2cc1OCCCN1CCOCC1 [UNC10225250A] | 6.21% | – | – | 83.23 | 4.27% | 140.08 | – | – | 81.48 | 82.98 |
| COc1cc(Nc2nccc(N3CCC(NC(=O)C(C)c4ccc(Cl)cc4)C3)n2)cc(OC)c1OC (stereo not drawn) [GSK1379757] | 15.24% | 100.22 | 95.49 | 97.54 | 5.14% | 80.40 | – | – | – | – |
| CNC(=O)c1ccccc1Nc1nc(Nc2ccc(N3CCOCC3)cc2)ncc1Cl [GSK1576028] | 5.85% | 165.31 | 111.32 | 149.21 | 42.50% | 15.51 | – | – | – | – |
| O=C(NCCCN1CCOCC1)c1cccc(Nc2nccc(Nc3ccc(Oc4ccccc4)cc3)n2)c1 [GW663929] | 16.30% | 88.80 | 80.91 | 108.46 | 4.62% | 103.04 | – | – | – | – |
| Nc1nc(Nc2ccccc2)cc(-c2ccc3c(N)n[nH]c3c2)n1 [GSK2225749] | 13.67% | 84.54 | 97.02 | 135.05 | 8.82% | 92.29 | – | – | – | – |
| O=c1cc(N2CCOCC2)nc2n(Cc3cccc(Cl)c3Cl)c3ccccc3n12 [UNC10225136A] | 23.04% | – | – | 86.64 | 3.50% | 90.29 | 100.81 | 121.13 | – | – |
| Nc1ncnc2scc(-c3ccc(NC(=O)Cc4cc(F)ccc4F)cc3)c12.O=C(O)C(F)(F)F [UNC10225107A] | 9.54% | 106.01 | 96.58 | 124.57 | 8.26% | 68.49 | – | – | – | – |
| Cc1ccc(F)c(C(=O)Nc2cccc(-c3nn4ccccc4c3-c3ccnc(Nc4cccc(F)c4)n3)c2)c1F [UNC10225076A] | 6.05% | – | – | 111.27 | 2.83% | 118.77 | 103.33 | 125.97 | – | – |
| NCCNS(=O)(=O)c1ccc(-c2ccnc3[nH]ccc23)cc1 [UNC10225023B] | 14.03% | 110.40 | 102.49 | 72.23 | 3.92% | 135.88 | – | – | – | – |
| CN1CCN(CCCNc2nccc(-c3c(-c4ccc(F)cc4)nn4cc(C(F)(F)F)ccc34)n2)CC1 [UNC10225376A] | 16.03% | – | – | 108.97 | 5.73% | 97.99 | 120.10 | 102.44 | – | – |
| COC(=O)c1cccc(NC(=O)NC2CCN(c3ccnc(Nc4ccc(F)cc4)n3)C2)c1 (stereo not drawn) [GSK1379725] | 21.26% | 80.47 | 88.32 | 90.74 | 7.57% | 95.32 | – | – | – | – |
| c1ccc(-c2cnc3nccnn23)cc1 [UNC10225020A] | 11.36% | – | – | 125.59 | 8.54% | 110.84 | 109.95 | 119.05 | – | – |

Source: article PMC9851200, “Multiparameter phenotypic screening for endogenous TFEB and TFE3 translocation identifies novel chemical series modulating lysosome function” (Autophagy, 2022)
